Assay results from PubChem BioAssay AID1996.
Converted amounts (≈) assume the structure as drawn.

conditions: buffer; pH 7.4; 200.0 µM

Compound | solubility kinetic [µg/mL]
Cn1c(=O)c2c(nc(N3CCOCC3)n2C/C=C/c2ccccc2)n(C)c1=O | 51.9 (≈ 136 µM)
N#Cc1ccc(CN2C(=O)NC3(CCCCCC3)C2=O)cc1 | 25.7 (≈ 86.4 µM)
COc1ccc(OC)c(CNC(=O)CCc2cn(C)c3ccccc23)c1 | 12.7 (≈ 36 µM)
Cc1nc(N2CCCCCC2)c2ccccc2n1.Cl | > 41.7
NC(=S)NC1CCS(=O)(=O)C1 (stereo not given) | > 29.1
COCCCNC(=O)/C(C#N)=C/c1cc(C)[nH]c1C | > 39.2
Cc1onc(-c2ccccc2)c1CNC(=O)Nc1cccc(Cl)c1 | 1.8 (≈ 5.27 µM)
CS(=O)(=O)c1ccc2nc(NC(=O)C3CC3)sc2c1 | 25.3 (≈ 85.4 µM)
COc1ccc(Nc2nccc(-c3ccc([N+](=O)[O-])cc3)n2)cc1 | 0.4 (≈ 1.24 µM)
COc1ccc(NC(=O)CS(=O)(=O)c2ccc(C)cc2)c(OC)c1 | > 52.4
Cc1ccc(Cl)cc1N1CCN(CC(O)COC(C)C)CC1.Cl (stereo not given) | > 54.5
CC(C)c1ccc(NC(=O)Cn2c(=O)oc3ccccc32)cc1 | 2.1 (≈ 6.77 µM)
CNC(=O)CSc1nnc(-c2ccco2)n1-c1ccccc1 | > 47.2
N/C(COc1cccc(Cl)c1)=N\O | 20.1 (≈ 100 µM)
O=c1[nH]c(/C=C/c2cccc(Br)c2)nc2ccccc12 | < 0.4
Cc1ccc(C(=O)Nc2ccccc2Cl)cc1 | 21 (≈ 85.5 µM)
CC(C)=CC(=O)N1CC[C@@H](N2CCN(c3ccccc3F)CC2)[C@H](O)C1 | > 54.2
CCc1ccc(C)c(OC(=O)c2cncc(Br)c2)c1 | 2.1 (≈ 6.56 µM)
CN(C)C(C)(C)C#CC(O)(c1ccccc1)c1ccccc1 | > 44
Cc1ccc(C)c(NC(=O)CCc2ccc(C)o2)c1 | 24.6 (≈ 95.6 µM)

Compound | solubility kinetic [µg/mL]
CC(CCN1CCN(CCO)CC1)c1ccccc1 (stereo not given) | 23.1 (≈ 88 µM)
N#Cc1c(/N=C/c2cccnc2)sc2c1CCCC2 | 7.5 (≈ 28.1 µM)
CC(C)CCNC(=O)CCCCn1c(=O)[nH]c2ccsc2c1=O | 47.1 (≈ 140 µM)
CCN1C(=O)C(=Cc2ccc(N3CCOCC3)o2)C(=O)N(CC)C1=S | 1.1 (≈ 3.03 µM)
Cc1cccc(NC(=O)COC(=O)c2cc(C)n(C3CC3)c2C)c1 | 9.7 (≈ 29.7 µM)
Cc1ccc(Cl)cc1NS(=O)(=O)c1cn(C)nc1C | > 45
COc1ccc(OC)c(NC(=O)CC(NC(C)=O)c2ccccc2)c1 (stereo not given) | 45.3 (≈ 132 µM)
Cc1cccc(NC(=O)CCNC(=O)c2ccccc2)c1 | 41.5 (≈ 147 µM)
O=C(N/N=C\c1cccnc1)c1ccccc1O | > 36.2
O=C(NC1C/C(=N/O)c2cc3c(cc21)OCO3)C(F)(F)F (stereo not given) | 32.3 (≈ 107 µM)
O=C(CCc1nc(-c2ccc(F)cc2)no1)NCc1ccccc1CN1CCOCC1 | > 63.7
OCC[N+]12CCC(CC1)C(C(O)(c1ccccc1)c1ccccc1)C2 (stereo not given) | > 50.8
N#Cc1ccc(S(=O)(=O)N2CCc3[nH]c4ccc(F)cc4c3C2)cc1 | < 0.3
COc1ccc(CC(C)Nc2ccccc2F)cc1 (stereo not given) | < 0.6
CCCOc1ccc(Cn2c(=O)oc3ccc(C)cc32)cc1 | < 0.6
O=c1[nH]cccc1-c1nc2ccccc2n1Cc1cccc(Cl)c1 | 1.4 (≈ 4.17 µM)
O=C(COC(=O)CC1CC2CCC1C2)Nc1ccccc1[N+](=O)[O-] (stereo not given) | 2.9 (≈ 8.73 µM)
N#CCN1CCC2(O)CCCCC2C1c1ccc2c(c1)OCO2 (stereo not given) | 42 (≈ 134 µM)
Cc1cc(C)n2nc(-c3ccco3)nc2n1 | > 32.1
Cc1cccc(CSCc2ccc(C(=O)NCC3CCCO3)o2)c1 (stereo not given) | 46.6 (≈ 135 µM)

Compound | solubility kinetic [µg/mL]
O=S(=O)(c1ccc(Cl)nc1)N1CCOCC1 | > 39.4
Cc1ccc(S(=O)(=O)CC(=O)NC(C)c2ccccc2)cc1 (stereo not given) | 42.4 (≈ 134 µM)
CN(CC(=O)Nc1ccc(OC(F)F)cc1)S(=O)(=O)/C=C/c1ccccc1 | 5.4 (≈ 13.6 µM)
Cc1ccc(NC(=O)N(C)c2ccccc2)cc1 | > 36
Cc1ccccc1-c1nnc(SCCC(=O)N2CCOCC2)o1 | > 50
N#Cc1ccc(OC(=O)c2cnccn2)cc1 | 31.7 (≈ 141 µM)
O=c1[nH]c(O)c(C=Nc2cccc(F)c2)c(=O)[nH]1 | 4.8 (≈ 19.3 µM)
COc1ccc(/C=C/C(=O)OC(C)CN2CCCCC2)cc1.Cl (stereo not given) | 49.4
CCOC(=O)C(c1ccccc1)C(Nc1ccc(F)cc1)c1ccccn1 (stereo not given) | 11.9 (≈ 32.7 µM)
CC(C)Oc1ccc(C(=O)NC2=NCCS2)cc1 | 23.1 (≈ 87.4 µM)
COc1ccc2oc(C(=O)OCC(=O)N3CC(C)OC(C)C3)c(C)c2c1 (stereo not given) | 51.6 (≈ 143 µM)
COc1cccc(CNC(=O)CCC(=O)N2CCOCC2)c1 | > 46
Cc1ccc(NC(=O)COC(=O)Cn2ccc(=O)[nH]c2=O)cc1C | > 49.7
O=C(O)c1sccc1S(=O)(=O)N1CCOCC1 | > 41.6
O=C(NCCc1ccc(F)cc1)c1cc2ccccc2oc1=O | < 0.7
CCOC(=O)C1CCCN(CCc2ccccc2)C1 (stereo not given) | 32.1 (≈ 123 µM)
CC(C)(C)CC(C)(C)NC(=O)c1ccccc1 | > 35
O=C(CN1C(=O)NC2(CCCCC2)C1=O)NCc1ccc2c(c1)OCO2 | 42.8 (≈ 119 µM)
O=C(COC(=O)c1ccccc1OCc1ccccc1Cl)NC1CCS(=O)(=O)C1 (stereo not given) | > 65.7
CC(Cc1c[nH]c2ccccc12)NC(=O)OCCCl (stereo not given) | > 42.1
